Results on 5 molecules are retold here after paper PMC8875555, “Discovery of Kinase and Carbonic Anhydrase Dual Inhibitors by Machine Learning Classification and Experiments” (Pharmaceuticals, 2022).

Several values for one entry are separate records, joined by “and”; a condition that tells them apart may be missing. Identical values can stand only once.

Assay [1] has as its target T1, CA I (Homo sapiens, UniProt P00915). Kind of assay: CA enzyme inhibition with 4-nitrophenyl acetate as substrate. As to conditions: converted from IC50 by Cheng-Prusoff; 5 nM enzyme, 1 mM substrate, 0.01% Triton X-100, 37 °C. In kind it is biochemical. As for the experimental part: (§1) All the reagents used for the biochemical experiments for enzyme inhibitions were bought from Cayman (Ann Harbor, MI, USA), Sigma–Aldrich (St. Louis, MO, USA), Sino Biological (Beijing, China), or Tokyo Chemical Industry (Tokyo, Japan). Inhibitory activities of small molecules on CAs were measured using 4-nitrophenyl acetate as a substrate. […] The changes were measured at 96-well microplates using Epoch2 from BioTek (Winooski, VT, USA). The slope in a time-dependent measurement was calculated by linear regression and interpreted as the quantified activity. Each 200 μL reaction solution comprised 5 nM enzyme and 1 mM substrate buffered using phosphate-buffered saline containing 5% dimethyl sulfoxide and 0.01% (w/v) Triton X-100 under the absence or the presence of inhibitor. […] The substrate-only solution was used as a control to consider autohydrolysis of the substrate. The value of IC50 was converted into Ki using the Cheng–Prusoff equation [66].

In assay [2] the target is T2, CA II (Homo sapiens, UniProt P00918). Described as above. In kind it is biochemical. To be noted: converted from IC50 by Cheng-Prusoff; 5 nM enzyme, 1 mM substrate, 0.01% Triton X-100, 37 °C. As for the experimental part:
as §1

Another assay concerns the target CA IX (Homo sapiens, UniProt Q16790). Described as above. In kind it is biochemical. As to conditions: converted from IC50 by Cheng-Prusoff; 5 nM enzyme, 1 mM substrate, 0.01% Triton X-100, 37 °C. As for the experimental part:
as §1

A further assay has as its target CA XII (Homo sapiens, UniProt O43570). Described as above. The class given is biochemical. As for the experimental part:
as §1

The target in assay [3] is T1, CA I. Nature of the assay: Differential scanning fluorimetry (DSF). As to conditions: 200 µM inhibitor; for CA I ΔTm: shift from apo CA I. The class given is binding. As for the experimental part: (§2) The biophysical experiments involved the binding of small molecules to CA I or CA II, which were quantified using the Tm of DSF. The profile was generated by CFX-connect […] (BioRad, Hercules, CA, USA). The solution contained 5× SYPRO® Orange and 0.5 µM recombinant human CA I or CA II in the absence or presence of 200 µM inhibitor. […] The patterns were nonlinearly fitted to the Boltzmann equation to calculate Tm. […] Nonlinear curve fittings for Ki in enzyme assay and Tm in DSF were performed using MATLAB (MathWorks, Natick, MA, USA).
(In general: Differential scanning fluorimetry follows unfolding on heating by fluorescence.)

The target of assay [4] is T2, CA II. Kind of assay: Differential scanning fluorimetry (DSF). In kind it is binding. As to conditions: 200 µM inhibitor; for CA II ΔTm: shift from apo CA II. As for the experimental part: as §2
The subject of a further assay is SYK. Also on record: method as in PMID 12941345. To be noted: cited from earlier work.
The test system of another assay is MST1. Also on record: method as in PMID 27535619. As to conditions: cited from earlier work.
The test system of the next assay is MST2. Details: method as in PMID 27535619. To be noted: cited from earlier work.
A further assay concerns CDK2. Details: method as in PMID 15974571. As to conditions: cited from earlier work.

CA XII, sequence (O43570 25-354): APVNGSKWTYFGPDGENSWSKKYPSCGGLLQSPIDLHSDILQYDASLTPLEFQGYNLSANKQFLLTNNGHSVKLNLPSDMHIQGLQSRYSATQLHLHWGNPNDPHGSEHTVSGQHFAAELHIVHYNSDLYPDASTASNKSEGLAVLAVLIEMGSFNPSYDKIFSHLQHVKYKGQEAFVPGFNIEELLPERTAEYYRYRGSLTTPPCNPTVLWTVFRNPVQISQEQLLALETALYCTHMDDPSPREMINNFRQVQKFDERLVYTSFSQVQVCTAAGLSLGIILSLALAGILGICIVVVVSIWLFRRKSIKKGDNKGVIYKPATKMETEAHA
T1 sequence (P00915 whole entry): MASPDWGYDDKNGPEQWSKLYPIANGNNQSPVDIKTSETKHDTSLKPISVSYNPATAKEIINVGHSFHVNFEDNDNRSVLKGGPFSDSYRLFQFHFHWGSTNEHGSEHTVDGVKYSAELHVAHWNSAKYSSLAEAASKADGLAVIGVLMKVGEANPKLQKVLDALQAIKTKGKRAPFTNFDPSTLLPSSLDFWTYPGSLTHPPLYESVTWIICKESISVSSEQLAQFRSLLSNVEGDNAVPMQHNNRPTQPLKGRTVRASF

Broadly, the Ki is the equilibrium dissociation constant of an inhibitor or competing ligand from its target. A lower Ki goes with a stronger hold on the target. As usually defined, the IC50 is the concentration needed to halve the response being measured. With `Cn1cc(/C=C2\C(=O)Nc3ccc(S(N)(=O)=O)cc32)c2ccccc21` [Compound 6046], the Ki on CA I [1] is 60000 ± 9000 nM; on CA II [2], 16000 ± 5000 nM; on CA IX, 2700 ± 300 nM; on CA XII, 13000 ± 4000 nM. The “CA I ΔTm” value on CA I [3] is on record as 0.1 degrees. Also, the “CA II ΔTm” value on CA II [4] turned out to be 0.2 degrees. The IC50 in the assay with SYK is […].
On to `CN1C(=O)c2sccc2N(C)c2nc(Nc3ccc(S(N)(=O)=O)cc3)ncc21` [XMU-MP-1], for which the Ki is ~30 nM and 32 nM at CA I [1]; ~30 nM and 24 nM on CA II [2]; ~30 nM and 31 nM on CA IX; 1000 nM on CA XII. In addition, the “weaker in inhibiting CA XII” value at CA XII (compared with CA I, CA II and CA IX) is reported as “approximately 30 fold”. Besides, the “CA I Tm” value at CA I [3] (0.5 µM CA I, enzyme alone 56.2 ± 0.1) came to 61.9±0.2 °C. For the same molecule, the “CA I ΔTm” value on CA I [3] is recorded as 5.7 degrees. Also, the “CA II Tm” value at CA II [4] (0.5 µM CA II, enzyme alone 52.6 ± 0.2) was 59.9±0.2 °C. Also, the “CA II ΔTm” value at CA II [4] was determined as 7.3 degrees. Further, the IC50 in the assay with MST1 is 71 nM; in the assay on MST2, 31 nM.
With `Nc1nc(Nc2ccc(S(N)(=O)=O)cc2)nn1C(=O)c1c(F)cccc1F` [Compound 5932, JNJ-7706621], the Ki at CA I [1] stood at 207 ± 66 nM; at CA II [2], […]; at CA IX, 220 ± 32 nM; at CA XII it was […]. In addition, the “CA I ΔTm” value at CA I [3] is […]. Further, at CA II [4], the “CA II ΔTm” value is […]. In addition, in the assay on CDK2, the IC50 is […].
Take `Nc1nc(Nc2ccc(S(N)(=O)=O)cc2)nn1C(=S)Nc1c(F)cccc1F` [Compound 5946, CDK1/2 inhibitor III]: the Ki at CA I [1] was 258 ± 58 nM; on CA II [2], 149 ± 21 nM; on CA IX, 100 ± 28 nM; at CA XII it was 254 ± 40 nM. The “CA II ΔTm” value on CA II [4] stood at 3.2 degrees. Moreover, the IC50 in the assay with CDK2 was 0.5 nM.
As for `Cc1ccc(Nc2nccc(N(C)c3ccc4c(C)n(C)nc4c3)n2)cc1S(N)(=O)=O` [Compound 5698, pazopanib], the Ki came out at 67 ± 10 nM on CA I [1], 242 ± 32 nM at CA II [2], 1700 ± 500 nM at CA IX and 800 ± 300 nM on CA XII.
